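A five-concentration, 48-hour dose response in 96-well plates underlies each endpoint, interpolated linearly between surrounding concentrations. Abbreviation: GI50, concentration required for 50% inhibition of growth.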 Active and inactive are the calls of the source. Rule as the data show it: active = GI50 up to about 1.1 µM and inactive = higher. Residues, ends and D or L forms follow the SMILES beside them. *: point of attachment. Cbz = O=C(OCc1ccccc1)*

Some test systems named below: LOX IMVI; U-251; RPMI-8226; KM12; SK-MEL-28; COLO 205; BT-549; OVCAR-3; Malme-3M; NCI/ADR-RES; HL-60; NCI-H522; RXF 393; A549; NCI-H23; T47D; NCI-H460.
Holding throughout (test): NCI tumour cell line growth inhibition, 48 h

As to `Cn1c(=O)[nH]c2[nH]c3ccccc3c2c1=O`, the GI50 in the assay with LOX IMVI was > 100 µM (inactive); in the assay with U-251, > 100 µM (inactive); with RPMI-8226 it was 92 µM (inactive); in the assay with KM12, > 100 µM (inactive); in the assay with SK-MEL-28, > 100 µM (inactive); in the assay with COLO 205, > 100 µM (inactive). For the same compound, the GI50 in the assay on BT-549, with OVCAR-3, in the assay on Malme-3M, in the assay on NCI/ADR-RES, in the assay with HL-60 and in the assay on NCI-H522 was > 100 µM (inactive) in each case. Besides, the GI50 in the assay on RXF 393, in the assay on A549, in the assay with NCI-H23 and in the assay with T47D was > 100 µM (inactive) each time.

As for `O=C1CCCC/C1=C\c1ccc(Br)cc1`, the GI50 with LOX IMVI was 39.6 µM (inactive); in the assay on U-251, 2.99 µM (inactive); with RPMI-8226 it was 15.7 µM (inactive); in the assay on KM12, 2.42 µM (inactive); in the assay on SK-MEL-28 it was 13.7 µM (inactive); with COLO 205 it was 17.6 µM (inactive). Moreover, the GI50 in the assay with BT-549 is 14.5 µM (inactive); with OVCAR-3, 20.7 µM (inactive); with Malme-3M, 7.73 µM (inactive); in the assay with NCI/ADR-RES, 3.73 µM (inactive); in the assay with HL-60 it was 2.4 µM (inactive); with NCI-H522, 14.8 µM (inactive). The GI50 in the assay on A549 is 22.4 µM (inactive); with NCI-H23 it was 16.2 µM (inactive); in the assay on NCI-H460, 35.5 µM (inactive); in the assay on T47D, 23.3 µM (inactive).

With `C[C@@H]1C[C@](O)([C@@H](C)Cl)C(=O)O[C@@H]2CCN3CC=C(COC(=O)[C@]1(C)O)[C@H]23`, the GI50 in the assay with LOX IMVI, in the assay on U-251, in the assay with RPMI-8226, in the assay with KM12, in the assay with SK-MEL-28 and in the assay with COLO 205 was > 100 µM (inactive) throughout. Also, the GI50 with BT-549, in the assay on OVCAR-3, in the assay with NCI/ADR-RES, in the assay on HL-60, with NCI-H522 and in the assay on A549 was > 100 µM (inactive) throughout. Also, the GI50 was > 10 µM (inactive) in the assay on NCI-H23, > 10 µM (inactive) in the assay on NCI-H460 and > 100 µM (inactive) in the assay on T47D.

In the case of `CC(NC(=O)C(NC(=O)OCc1ccccc1)C(C)C)C(=O)NCC(=O)O` (stereo not drawn) (Cbz-Val-Ala-Gly-OH; configuration not given here), the GI50 with U-251, in the assay with RPMI-8226, in the assay with KM12, with SK-MEL-28, with COLO 205 and in the assay on BT-549 was > 100 µM (inactive) throughout. Also, the GI50 with OVCAR-3, with Malme-3M, with NCI/ADR-RES, in the assay on NCI-H522, in the assay on RXF 393 and with A549 was > 100 µM (inactive) throughout. The GI50 in the assay with NCI-H23, in the assay with NCI-H460 and with T47D was > 100 µM (inactive) each time.

On to `N=C(N)c1ccc(/C=C/c2ccc(C(=N)N)cc2)cc1`, for which the GI50 is > 100 µM (inactive) in the assay with LOX IMVI; 33.5 µM (inactive) in the assay with U-251; > 100 µM (inactive) in the assay on KM12; 45.8 µM (inactive) with SK-MEL-28; > 100 µM (inactive) with BT-549; > 100 µM (inactive) with OVCAR-3. For the same compound, the GI50 with Malme-3M is 53 µM (inactive); in the assay on NCI/ADR-RES it was 77.3 µM (inactive); in the assay on NCI-H522, 63.2 µM (inactive); in the assay with RXF 393, > 100 µM (inactive); with A549 it was 39.7 µM (inactive); in the assay on NCI-H23, 78.5 µM (inactive). Moreover, the GI50 in the assay with NCI-H460 is 34.5 µM (inactive); with T47D, > 100 µM (inactive).

In the case of `O=[N+]([O-])c1ccc(N/N=C(\c2ccccc2)c2ccccn2)nc1`, the GI50 in the assay on U-251 was 1.26 µM (inactive); in the assay with RPMI-8226, 0.59 µM (active); with KM12 it was 6.62 µM (inactive); in the assay with SK-MEL-28, 9.14 µM (inactive); with COLO 205 it was < 0.0391 µM (active); in the assay on BT-549 it was 15.5 µM (inactive). The GI50 in the assay with OVCAR-3 is 0.409 µM (active); in the assay with Malme-3M it was 0.0367 µM (active); with NCI/ADR-RES, 0.658 µM (active); with HL-60, < 0.01 µM (active); with NCI-H522, 0.0794 µM (active); in the assay with RXF 393, 5.56 µM (inactive). Moreover, the GI50 is 4.48 µM (inactive) in the assay with A549, 0.845 µM (active) in the assay on NCI-H23, 0.957 µM (active) in the assay on NCI-H460 and 0.0107 µM (active) with T47D.

On to `CO[C@]12C[C@@H](CNC(=O)c3cc(Br)c[nH]3)O[C@H]1NC(=O)N2`, for which the GI50 in the assay with U-251, with RPMI-8226, with KM12, in the assay on SK-MEL-28, in the assay on COLO 205 and in the assay on BT-549 was > 100 µM (inactive) throughout. The GI50 in the assay on OVCAR-3, in the assay with Malme-3M, with NCI/ADR-RES, with HL-60, with NCI-H522 and in the assay on A549 was > 100 µM (inactive) throughout. In addition, the GI50 in the assay with NCI-H23, in the assay on NCI-H460 and in the assay with T47D was > 100 µM (inactive) throughout.

`COc1cccc(-c2ccc3c4c2O[C@H]2c5[nH]c6ccccc6c5C[C@@]5(O)[C@@H](C3)N(CC3CC3)CC[C@]425)c1`: the GI50 in the assay with LOX IMVI was 1.72 µM (inactive); in the assay with U-251, 1.77 µM (inactive); in the assay with RPMI-8226 it was 2.18 µM (inactive); in the assay on KM12, 1.85 µM (inactive); with COLO 205 it was 1.81 µM (inactive); in the assay on BT-549, 4.83 µM (inactive). The GI50 was 1.9 µM (inactive) with OVCAR-3; 1.5 µM (inactive) with Malme-3M; 2.07 µM (inactive) in the assay with NCI/ADR-RES; 1.38 µM (inactive) in the assay on HL-60; 1.15 µM (inactive) with NCI-H522; 1.66 µM (inactive) in the assay on RXF 393. The GI50 was 1.77 µM (inactive) in the assay on A549, 2.21 µM (inactive) with NCI-H23, 1.79 µM (inactive) in the assay with NCI-H460 and 2.1 µM (inactive) with T47D.

Take `C1=C2C3=[N+](CCCC3)CC2Cc2sccc21` (configuration not stated): the GI50 with LOX IMVI was > 100 µM (inactive); in the assay on U-251, 29.4 µM (inactive); with KM12, 45.6 µM (inactive); with SK-MEL-28, > 100 µM (inactive); with COLO 205, 67.1 µM (inactive); with BT-549, 82.6 µM (inactive). In addition, the GI50 was 64.4 µM (inactive) in the assay on OVCAR-3; 49.1 µM (inactive) with Malme-3M; > 100 µM (inactive) in the assay with NCI/ADR-RES; > 100 µM (inactive) in the assay with HL-60; 53 µM (inactive) with NCI-H522; > 100 µM (inactive) in the assay on RXF 393. In addition, the GI50 in the assay on A549 is 30 µM (inactive); in the assay on NCI-H23, > 100 µM (inactive); with NCI-H460, 52.7 µM (inactive); with T47D, 74.8 µM (inactive).

On to `COC(=O)c1cc(C)n2c1CS[C@@H]2c1ccccc1`, for which the GI50 in the assay on LOX IMVI is 40.1 µM (inactive); in the assay with U-251, 32 µM (inactive); in the assay with RPMI-8226, 28.2 µM (inactive); in the assay with KM12, 35.1 µM (inactive); in the assay on SK-MEL-28, > 100 µM (inactive); in the assay with COLO 205, 26.9 µM (inactive). In addition, the GI50 in the assay with BT-549 was 29.2 µM (inactive); in the assay with OVCAR-3, 32.4 µM (inactive); in the assay with Malme-3M, 27.6 µM (inactive); in the assay with NCI/ADR-RES, 25.1 µM (inactive); in the assay with HL-60, 26.2 µM (inactive); in the assay with NCI-H522, 23.2 µM (inactive). For the same compound, the GI50 is 18.6 µM (inactive) in the assay on RXF 393, 34.7 µM (inactive) with A549, 34.5 µM (inactive) in the assay with NCI-H23 and 21.5 µM (inactive) in the assay on T47D.

Turning to `O=[N+]([O-])C1=Cc2c(O)ccc(O)c2C2c3ccccc3NC12` (configuration not stated), the GI50 is 14 µM (inactive) in the assay with LOX IMVI; 12.9 µM (inactive) in the assay on U-251; 10.4 µM (inactive) in the assay with RPMI-8226; 9.04 µM (inactive) in the assay with KM12; 18.5 µM (inactive) with SK-MEL-28; 11.6 µM (inactive) in the assay on COLO 205. Besides, the GI50 in the assay with BT-549 was 12.3 µM (inactive); in the assay on OVCAR-3, 5.81 µM (inactive); in the assay on NCI/ADR-RES, 7.43 µM (inactive); in the assay with HL-60 it was 5.85 µM (inactive); in the assay on NCI-H522, 2.45 µM (inactive); in the assay on RXF 393, 13.2 µM (inactive). For the same compound, the GI50 in the assay on A549 was 17.3 µM (inactive); in the assay on NCI-H23 it was 4.24 µM (inactive); with NCI-H460, 12.8 µM (inactive); in the assay on T47D, 7.03 µM (inactive).

As for `CCN(CC)CCNc1c(OC)cc(C)c2sc3ccccc3c(=O)c12`, the GI50 was 4.34 µM (inactive) with U-251; 1.3 µM (inactive) in the assay on RPMI-8226; 5.41 µM (inactive) with KM12; 1.92 µM (inactive) in the assay on SK-MEL-28; 2.06 µM (inactive) in the assay with COLO 205; 11.7 µM (inactive) with BT-549. The GI50 in the assay with OVCAR-3 is 11.8 µM (inactive); in the assay with Malme-3M, 2.13 µM (inactive); with NCI/ADR-RES, 5.27 µM (inactive); in the assay on HL-60 it was 5.45 µM (inactive); in the assay on NCI-H522, 5.33 µM (inactive); in the assay on RXF 393, 10.1 µM (inactive). For the same compound, the GI50 was 4.31 µM (inactive) in the assay on A549, 14.5 µM (inactive) in the assay on NCI-H23, 4.5 µM (inactive) in the assay with NCI-H460 and 11.4 µM (inactive) in the assay with T47D.

Consider `CNC(=S)Nc1ccc(OC)c2ccccc12`, for which the GI50 in the assay with LOX IMVI, in the assay with U-251, with RPMI-8226, in the assay with KM12, in the assay on SK-MEL-28 and in the assay on COLO 205 was > 10 µM (inactive) in each case. Moreover, the GI50 in the assay on BT-549 is > 10 µM (inactive); with OVCAR-3 it was 2.88 µM (inactive); with Malme-3M it was > 10 µM (inactive); in the assay on NCI/ADR-RES it was > 10 µM (inactive); with HL-60, > 10 µM (inactive); with NCI-H522 it was > 10 µM (inactive). For the same compound, the GI50 in the assay with A549, in the assay on NCI-H23 and with T47D was > 10 µM (inactive) throughout.

Source of the values: ChEMBL document CHEMBL1201862, “PubChem BioAssay data set” (2004).
